# Test results: patent US7754443B2, “Serum replacement for thyroid hormone-responsive cell culture” (University of Victoria Innovation and Development …, priority 2005, dated 2010)
# Key:
# rat pituitary GH3 cells = test: TH-induced proliferation of GH3 cells, hemocytometer cell count; type: cell-based; settings: 10 nM T3, all three sera, relative to vehicle controls
# Method: FIG. 5 is evidence that serum from other species is suitable for use in thyroid hormone induction experiments with mammalian cells. 3.5×10^4 rat pituitary GH3 cells were plated in duplicate at a density of 2×10^4 cells/cm^2 and cultured in the presence of medium containing either 10% charcoal stripped fetal calf serum (stripped), serum from salmon parr (salmon), or Rana catesbeiana tadpoles (RTS). After 2 days, 10 nM T3 or vehicle control was added and the cells were counted 5 days later after trypsinization on a hemocytometer. The total cell numbers are indicated with vehicle control (white bars) and T3-exposed (black bars) cells in accordance with an embodiment.
# Two frog cell lines, XTC-2 cells (Machuca and Tata 1992) and XLA cells (Kanamori and Brown 1993) were obtained from J. Tata and D. Brown, respectively and grown in 70% Liebovitz medium supplemented with 10% bovine growth serum, 100 µg/ml gentamycin sulfate and 10 mM Hepes, pH 7.5 (GIBCO/Invitrogen, Grand Island, N.Y.). These cells were grown at 25° C. in air. The rat pituitary tumor GH3 cell line was obtained from R. T. Zoeller and maintained in Kaighn's modification of Ham's F 12 medium with 2 mM glutamine, 1.5 g/L sodium bicarbonate, 10% fetal bovine serum, 1,000 U/ml penicillin, and 1 mg/ml streptomycin at 37° C. in 5% CO2. […]
# [1] = test system: TH receptor β (TRβ) gene expression; test: TRβ transcript levels by RT-QPCR in XLA cells cultured in serum-containing medium; type: cell-based, Xenopus laevis; settings: 10 nM T3, 2 days, relative to uninduced control
# Method: The indicated cell types were plated at a density of 2×10^4 cells/cm^2 and cultured in the presence of medium containing either 10% charcoal stripped fetal calf serum (stripped) or Rana tadpole serum (RTS). […] All values were normalized to an invariant L8 ribosomal protein transcript. A) Relative expression levels of the control cells. B) Fold change of the TRβ transcript levels relative to the control, uninduced cells in accordance with an embodiment. […] The expression of TRβ and GH gene transcripts was analyzed using a MX4000 real-time quantitative polymerase chain reaction system (Stratagene, La Jolla, Calif., USA) as described previously (Crump, Werry et al. 2002) using gene specific primers (for TRβ: UP primer 5'-[NT]; DOWN primer 5'-[NT]; for GH: UP primer 5'-[NT]; DOWN primer 5'-[NT] The annealing temperature was 55° C. A standard curve for each primer pair was generated using the appropriate quantified plasmid DNA containing the target gene sequence. Quadruplicate reactions were performed for each sample and data were averaged and normalized to the expression of the control gene encoding the ribosomal protein L8. […] Total RNA was isolated from these cells and analyzed for the levels of the TRβ gene by reverse transcription quantitative real time polymerase chain reaction (RT-QPCR). […]
# [2] = test system: growth hormone (GH) mRNA transcript; test: GH transcript levels by RT-QPCR in GH3 cells cultured in serum-containing medium; type: cell-based, rat; settings: 10 nM T3, 2 days, relative to uninduced control
# Method: The indicated cell types were plated at a density of 2×10^4 cells/cm^2 and cultured in the presence of medium containing either 10% charcoal stripped fetal calf serum (stripped) or Rana tadpole serum (RTS). […] All values were normalized to an invariant L8 ribosomal protein transcript. A) Relative expression levels of the control cells. B) Fold change of the GH transcript levels relative to the control, uninduced cells in accordance with an embodiment. […] The expression of TRβ and GH gene transcripts was analyzed using a MX4000 real-time quantitative polymerase chain reaction system (Stratagene, La Jolla, Calif., USA) as described previously (Crump, Werry et al. 2002) using gene specific primers (for TRβ: UP primer 5'-[NT]; DOWN primer 5'-[NT]; for GH: UP primer 5'-[NT]; DOWN primer 5'-[NT] The annealing temperature was 55° C. A standard curve for each primer pair was generated using the appropriate quantified plasmid DNA containing the target gene sequence. Quadruplicate reactions were performed for each sample and data were averaged and normalized to the expression of the control gene encoding the ribosomal protein L8.
# [3] = test system: TH receptor β (TRβ) gene expression; test: TRβ transcript levels by RT-QPCR in XTC-2 cells cultured in serum-containing medium; type: cell-based, Xenopus laevis
# Method: The indicated cell types were plated at a density of 2×10^4 cells/cm^2 and cultured in the presence of medium containing either 10% charcoal stripped fetal calf serum (stripped) or Rana tadpole serum (RTS). […] All values were normalized to an invariant L8 ribosomal protein transcript. A) Relative expression levels of the control cells. B) Fold change of the TRβ transcript levels relative to the control, uninduced cells in accordance with an embodiment. […] XTC cells were plated in triplicate at a density of 2×10^4 cells/cm^2 and cultured in the presence of medium containing either 10% charcoal stripped fetal calf serum (CS) or Rana tadpole serum from different premetamorphic (VI, XII) or prometamorphic (XV, XVIII) stages (Taylor and Kollros, 1946). […] All values were normalized to an invariant L8 ribosomal protein transcript. The relative expression levels are indicated with vehicle control (white bars) and T3-exposed (black bars) cells in accordance with an embodiment. FIG. 3 is evidence that serum from other species is suitable for use in thyroid hormone induction experiments. XTC cells were plated at a density of 2×10^4 cells/cm^2 and cultured in the presence of medium containing either 10% charcoal stripped fetal calf serum (stripped), serum from salmon Parr (salmon), or neotenic salamanders (salamander). […] All values were normalized to an invariant L8 ribosomal protein transcript. […]
structure (smiles),measurement,setting,value
"N[C@@H](Cc1cc(I)c(Oc2ccc(O)c(I)c2)c(I)c1)C(=O)O [T3, 3,5,3′-triiodothyronine]",GH3 proliferation on exposure to T3,rat pituitary GH3 cells,increased proliferation
same,TRβ mRNA levels on exposure to T3,[1],increase
same,GH mRNA levels on exposure to T3,[2],increase
same,TRβ levels after addition of T3,"[3]; XTC cells, 10 nM T3, in charcoal stripped serum or RTS of stages VI, XII, XV, XVIII (all cases)",robust elevation
same,TRβ mRNA levels on exposure to T3,"[3]; XTC-2 cells, 10 nM T3, 2 days, relative to uninduced control",increase
